Among the test systems are MDA-N; LXFL 529 NSCLC; M19-MEL melanoma; DMS 114 small cell lung; SNB-78 CNS; XF 498 CNS; KM20L2 colon; DLD-1 colon; RXF-631 renal.
Common to all, as to experiment: inhibition of tumour cell growth, NCI panel, 48 h

SMILES strings stand for the structures. Where “and” joins values, the source holds several entries; their conditions need not be identical. Equal entries are not always repeated.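 Grown in 96-well plates, cells were treated for 48 hours with each compound at five concentrations. Insufficient inhibition: endpoint recorded as highest concentration tested. GI50 marks 50% less growth. TGI marks complete inhibition of growth.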

With `COC(=O)c1ccc(=O)c2nc3/c(=C/O)c(O)cc(=O)c3[nH]c12`, the TGI in the assay with MDA-N was 24.6 µM.
Same read-out and setting: next, `O=C1C=CC(=O)C1(Br)Br`: 27.5 µM.
Take `CC[C@@]1(O)C(=O)OCc2c1cc1n(c2=O)Cc2cc3cc(OC)ccc3nc2-1`: the TGI with LXFL 529 NSCLC is 2.51 µM; in the assay with M19-MEL melanoma, 1.48 µM; in the assay with MDA-N, 1.04 µM; in the assay with DMS 114 small cell lung, 1.02 µM.
Turning to `OCCCSc1ccccc1SCCCO`, in the assay on MDA-N, the TGI was greater than 100 µM.
As to `CCSc1nc2sc(C)c(C)c2c(=O)n1-c1ccc(C(=O)O)cc1`, the TGI in the assay on SNB-78 CNS, in the assay with XF 498 CNS, in the assay on M19-MEL melanoma, with DMS 114 small cell lung, in the assay on KM20L2 colon and in the assay on DLD-1 colon was greater than 100 µM throughout.
`CCC(=O)OC1CCn2c1nc1c2C(=O)C(C)=C(N2CC2)C1=O` (stereo not drawn): the TGI with SNB-78 CNS came out at 1.41 µM; in the assay with XF 498 CNS it was 0.0973 µM; in the assay on LXFL 529 NSCLC, 0.35 µM; with M19-MEL melanoma it was 0.345 µM; with MDA-N, 0.181 µM; in the assay on DMS 114 small cell lung, 0.522 µM. For the same compound, the TGI in the assay on KM20L2 colon came to 0.831 µM; in the assay on DLD-1 colon it was 1.58 µM.
`O=C(O)CCC1COc2ccccc2O1` (stereo not drawn) returned a TGI in the assay on MDA-N greater than 10 µM.
For `FC(F)(F)c1ccc(C=NC23CC4CC(CC(C4)C2)C3)cc1`, the TGI with SNB-78 CNS, in the assay with DMS 114 small cell lung and in the assay with KM20L2 colon was greater than 100 µM throughout.
In the case of `NCCNCC(O)CO` (stereo not drawn), in the assay with MDA-N, the TGI is greater than 100 µM.
Take `CCOC(OCC)C(CC)[Se]c1ccccc1[N+](=O)[O-]` (stereo not drawn): the TGI was greater than 100 µM in the assay on SNB-78 CNS; greater than 49 µM with XF 498 CNS; greater than 100 µM with LXFL 529 NSCLC; greater than 100 µM with M19-MEL melanoma; greater than 100 µM in the assay on MDA-N; 6.36 µM with KM20L2 colon. Besides, in the assay on DLD-1 colon, the TGI is greater than 90.2 µM.
Turning to `O=C(O)c1cc2ccccc2c(N=Nc2c([N+](=O)[O-])cc([N+](=O)[O-])cc2S(=O)(=O)O)c1O`, in the assay with MDA-N, the TGI is greater than 100 µM.
For the compound `COC(=O)C1=C(C(=O)OC)C23C=CC=CC24C(C(=O)OC)=C(C(=O)OC)C4C1C3` (stereo not drawn), the TGI in the assay on SNB-78 CNS, in the assay on XF 498 CNS, in the assay with LXFL 529 NSCLC, in the assay on M19-MEL melanoma, in the assay on DMS 114 small cell lung and with KM20L2 colon was greater than 100 µM throughout. The compound further returned a TGI in the assay with DLD-1 colon greater than 100 µM.
Turning to `C/C(=N\NC(=O)CC(=O)Nc1ccc(Cl)cc1)c1cc2ccccc2oc1=O`, the TGI in the assay with XF 498 CNS, with M19-MEL melanoma, in the assay with DMS 114 small cell lung, in the assay on KM20L2 colon and with DLD-1 colon was greater than 100 µM throughout.
Regarding `N/N=C1\c2ccccc2C2/C(=N\N)c3ccccc3C12` (stereo not drawn), the TGI in the assay on LXFL 529 NSCLC, in the assay with M19-MEL melanoma, with DMS 114 small cell lung, in the assay with KM20L2 colon and in the assay on DLD-1 colon was greater than 100 µM each time.
Take `COc1ccc(NC(=O)C(=O)NNC(=O)c2sc(NNC(C)=O)nc2C)c([N+](=O)[O-])c1`: the TGI in the assay with SNB-78 CNS, with XF 498 CNS, in the assay with LXFL 529 NSCLC, in the assay on M19-MEL melanoma, with DMS 114 small cell lung and in the assay on KM20L2 colon was greater than 100 µM in each case.
For the compound `NC(=O)N/N=C(\Cc1nc2ccc(C(=O)c3ccccc3)cc2[nH]c1=O)C(=O)Nc1ccc(Br)cc1`, the TGI in the assay on SNB-78 CNS, with XF 498 CNS, in the assay with LXFL 529 NSCLC, in the assay with M19-MEL melanoma, with DMS 114 small cell lung and in the assay on KM20L2 colon was greater than 100 µM throughout. In addition, the TGI with DLD-1 colon was greater than 100 µM.
In the case of `CC(=O)O[C@H]1[C@@H]2[C@@H]3[C@@H](C[C@H]1C)[C@@H](C)CO[C@@]1(C)CC/C=C(/C)C[C@@H]2O[C@@H]31`, the TGI in the assay on XF 498 CNS, with LXFL 529 NSCLC, in the assay on M19-MEL melanoma, in the assay with DMS 114 small cell lung, in the assay on KM20L2 colon and with DLD-1 colon was greater than 100 µM in each case. Also, the TGI with RXF-631 renal was greater than 100 µM.
Consider `O=C1c2cccnc2-c2nc(/C=C/c3ccccc3)cc3c2c1nc1ccccc13`, for which, in the assay on MDA-N, the GI50 is 2.04 µM and the TGI is 4.15 µM.
For `CO[C@H]1[C@H](O)[C@H](O[C@H]2CC[C@@]3(C)[C@H](CC[C@@H]4[C@@H]3CC[C@]3(C)[C@@H](C5=CC(=O)OC5)CC[C@]43O)C2)O[C@@H](C)[C@@H]1O`, the TGI was 0.00658 µM and 0.0128 µM in the assay on LXFL 529 NSCLC; 0.016 µM with M19-MEL melanoma; less than 0.0001 µM in the assay on MDA-N; 0.00335 µM in the assay with DMS 114 small cell lung; 0.0118 µM in the assay with KM20L2 colon; 0.00767 µM with DLD-1 colon. The same compound gave a TGI in the assay on RXF-631 renal greater than 100 µM. In addition, in the assay on RXF-631 renal, the GI50 was greater than 100 µM.
In the case of `Cc1ccc(S(=O)(=O)N2CCC3(C(/C=C/c4ccccc4)=Nc4ccccc43)C2c2ccccc2)cc1` (stereo not drawn), the TGI in the assay on SNB-78 CNS, with XF 498 CNS, in the assay with LXFL 529 NSCLC, with M19-MEL melanoma, in the assay on DMS 114 small cell lung and in the assay with KM20L2 colon was greater than 100 µM in each case. The TGI with DLD-1 colon is greater than 100 µM.
In turn, `Cc1cc(=O)oc2cc(OC(=O)Nc3ccc(Cl)c(Cl)c3)ccc12` had a TGI with MDA-N of 54.7 µM.
As for `N#C/C(=C/c1cccnc1)C(=O)c1ccccc1`, the TGI with SNB-78 CNS, in the assay with XF 498 CNS, with LXFL 529 NSCLC, in the assay on M19-MEL melanoma, in the assay on DMS 114 small cell lung and in the assay with KM20L2 colon was greater than 100 µM each time. Also, the TGI with DLD-1 colon was greater than 100 µM.
On to `Cc1cc(N(CCC#N)CCC#N)ccc1/C=C(\NC(=O)/C=C/c1ccccc1)NC(=O)Nc1ccc(Cl)cc1`, for which the TGI in the assay with XF 498 CNS, in the assay with LXFL 529 NSCLC, with M19-MEL melanoma, in the assay with DMS 114 small cell lung and with DLD-1 colon was greater than 100 µM each time.
`Cc1ccc(S(=O)(=O)N2CCSCCSCCN(S(=O)(=O)c3ccc(C)cc3)CCN(S(=O)(=O)c3ccc(C)cc3)CC2)cc1` registered a TGI with MDA-N greater than 100 µM.
Turning to `CC1=C(C(=O)Nc2ccccc2C)C(c2ccc([N+](=O)[O-])cc2)C(C(=O)Nc2ccccc2C)=C(C)N1`, the TGI with XF 498 CNS, with LXFL 529 NSCLC, in the assay with M19-MEL melanoma, with DMS 114 small cell lung, in the assay with KM20L2 colon and in the assay with DLD-1 colon was greater than 100 µM in each case. The TGI in the assay with RXF-631 renal is greater than 100 µM.
On to `CCOP(=O)(CC(=O)C1=C(O)C(CCCNC(=O)OC(C)(C)C)N(Cc2ccc(OC)c(OC)c2)C1=O)OCC` (stereo not drawn), for which the TGI in the assay on LXFL 529 NSCLC, in the assay on M19-MEL melanoma, in the assay on DMS 114 small cell lung, in the assay on KM20L2 colon, with DLD-1 colon and in the assay with RXF-631 renal was greater than 100 µM throughout.
Turning to `Cc1cc(Cc2cc(C)c(NC(=O)C(=O)C3C(=O)NC(=S)NC3=O)c(C(C)C)c2)cc(C(C)C)c1NC(=O)C(=O)C1C(=O)NC(=S)NC1=O`, the TGI in the assay with SNB-78 CNS, with LXFL 529 NSCLC, in the assay with M19-MEL melanoma, in the assay on DMS 114 small cell lung, in the assay with KM20L2 colon and in the assay with DLD-1 colon was greater than 100 µM each time. The compound also yielded a TGI in the assay with RXF-631 renal greater than 100 µM.
With `CC12O[C@H](c3ccccc3)[C@H](c3ccccc3)N1C(=O)C1(C(=O)OCc3ccccc3)CC12` (stereo partly drawn), the TGI in the assay with XF 498 CNS, with LXFL 529 NSCLC, in the assay on M19-MEL melanoma, with DMS 114 small cell lung, with KM20L2 colon and in the assay on DLD-1 colon was greater than 100 µM in each case. For the same compound, in the assay on RXF-631 renal, the TGI was greater than 100 µM.
As to `CC1CCCC(C(O)CC2CC(=O)N(c3ccccc3)C(=O)C2)C1=O` (stereo not drawn), the TGI with SNB-78 CNS, with LXFL 529 NSCLC, in the assay on M19-MEL melanoma, in the assay on DMS 114 small cell lung, with KM20L2 colon and with DLD-1 colon was greater than 100 µM each time.
`Cc1ccc(-c2ccc(Nc3c4ccccc4nc4ccccc34)cc2)cn1` showed a TGI with MDA-N of 19.6 µM.
In the case of `CCCCn1c2c(c3ccccc3c1=O)C(=O)c1ccccc1-2`, the TGI with MDA-N is greater than 100 µM.
Regarding `CCC(C(=O)[O-])C(=O)[O-].CCC(C(=O)[O-])C(=O)[O-].N.N.NCCCCCN.[Pt+4].[Pt+4]`, the GI50 with SNB-78 CNS, with LXFL 529 NSCLC, with KM20L2 colon and in the assay on DLD-1 colon was greater than 100 µM throughout. Moreover, the TGI with SNB-78 CNS, in the assay on LXFL 529 NSCLC, in the assay with KM20L2 colon and in the assay with DLD-1 colon was greater than 100 µM in each case.
For the compound `O=C(CC/C(C/C(=N/O)c1ccc(F)cc1)=N/O)N(Cc1ccccc1)Cc1ccccc1`, the TGI in the assay on LXFL 529 NSCLC, with M19-MEL melanoma, with DMS 114 small cell lung, in the assay on KM20L2 colon and in the assay with DLD-1 colon was greater than 100 µM each time.
As for `CCOc1ccccc1NC(=O)CCc1nnc2s/c(=C\CCc3ccccc3)c(=O)n12`, the TGI in the assay with SNB-78 CNS, in the assay with XF 498 CNS, in the assay with LXFL 529 NSCLC, in the assay on M19-MEL melanoma, with DMS 114 small cell lung and in the assay with KM20L2 colon was greater than 100 µM throughout. The compound further registered a TGI in the assay on DLD-1 colon greater than 100 µM.
In the assay on MDA-N, `OCCSCCCSCCO` came in with a TGI greater than 100 µM.

The values above are taken from PubChem BioAssay (NCI).
